Measurements: ChEMBL document CHEMBL1201862, “PubChem BioAssay data set” (2004)
Active and inactive are the calls of the source.

Tests used:
[1] = molecular target: T1, Replicative DNA helicase DnaB (Mycobacterium tuberculosis, UniProt P9WMR3); assay: DnaB intein splicing inhibitors, dose response, biochemical, cell-free fluorescence (AID 449749); format: functional
T1 sequence (P9WMR3 whole entry): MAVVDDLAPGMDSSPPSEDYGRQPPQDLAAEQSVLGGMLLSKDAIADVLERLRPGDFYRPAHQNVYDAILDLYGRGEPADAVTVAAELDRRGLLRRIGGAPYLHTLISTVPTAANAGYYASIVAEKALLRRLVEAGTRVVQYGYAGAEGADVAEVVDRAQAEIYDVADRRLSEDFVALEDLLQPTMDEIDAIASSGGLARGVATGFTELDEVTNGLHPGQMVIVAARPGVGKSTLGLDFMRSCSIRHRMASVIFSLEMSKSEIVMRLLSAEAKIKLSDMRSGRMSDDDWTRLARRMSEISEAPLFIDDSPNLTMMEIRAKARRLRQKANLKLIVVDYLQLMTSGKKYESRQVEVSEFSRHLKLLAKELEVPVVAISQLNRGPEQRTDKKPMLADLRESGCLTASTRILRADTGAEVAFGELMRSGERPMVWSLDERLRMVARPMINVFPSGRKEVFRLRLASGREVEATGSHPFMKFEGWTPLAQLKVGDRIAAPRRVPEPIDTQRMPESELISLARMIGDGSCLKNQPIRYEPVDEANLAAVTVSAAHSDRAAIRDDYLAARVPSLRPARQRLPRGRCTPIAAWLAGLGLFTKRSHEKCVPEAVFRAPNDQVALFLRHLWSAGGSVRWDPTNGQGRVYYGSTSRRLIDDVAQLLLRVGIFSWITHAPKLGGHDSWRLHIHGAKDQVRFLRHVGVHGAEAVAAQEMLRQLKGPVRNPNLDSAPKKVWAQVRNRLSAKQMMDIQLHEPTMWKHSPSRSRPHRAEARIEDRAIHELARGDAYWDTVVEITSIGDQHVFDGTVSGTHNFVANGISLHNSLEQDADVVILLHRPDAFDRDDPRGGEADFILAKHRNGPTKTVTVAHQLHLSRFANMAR

[2] = molecular target: T2, Protein RecA (Mycobacterium tuberculosis, UniProt P9WHJ3); assay: Fluorescence Cell-Free Homogeneous Dose Retest to Identify Inhibitors of RecA-Intein Splicing Activity. [Related pubchem assays (depositor defined):AID2097, AID2223, AID489010, AID492950]; format: functional
T2 sequence (P9WHJ3 whole entry): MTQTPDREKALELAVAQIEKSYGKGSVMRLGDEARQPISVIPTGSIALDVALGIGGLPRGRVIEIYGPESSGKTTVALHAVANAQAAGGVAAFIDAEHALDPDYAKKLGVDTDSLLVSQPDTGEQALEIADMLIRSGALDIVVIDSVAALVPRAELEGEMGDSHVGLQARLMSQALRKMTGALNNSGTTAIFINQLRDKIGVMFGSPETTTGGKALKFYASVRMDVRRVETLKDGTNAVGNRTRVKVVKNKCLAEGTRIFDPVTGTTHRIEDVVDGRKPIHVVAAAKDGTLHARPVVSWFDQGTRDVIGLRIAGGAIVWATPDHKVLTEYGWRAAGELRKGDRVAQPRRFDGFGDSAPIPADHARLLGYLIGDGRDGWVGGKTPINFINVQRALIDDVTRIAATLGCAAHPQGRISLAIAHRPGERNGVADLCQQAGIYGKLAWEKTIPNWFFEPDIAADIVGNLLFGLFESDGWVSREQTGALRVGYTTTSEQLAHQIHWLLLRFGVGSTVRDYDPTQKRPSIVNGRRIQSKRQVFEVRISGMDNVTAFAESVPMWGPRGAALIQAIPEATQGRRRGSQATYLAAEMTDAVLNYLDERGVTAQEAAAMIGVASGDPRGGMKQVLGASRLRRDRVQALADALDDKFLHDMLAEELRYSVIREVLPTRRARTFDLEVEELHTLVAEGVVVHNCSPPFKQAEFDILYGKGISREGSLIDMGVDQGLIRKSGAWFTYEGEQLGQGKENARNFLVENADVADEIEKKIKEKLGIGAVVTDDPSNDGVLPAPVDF

[3] = molecular target: T3, Heat shock factor protein 1 (Mus musculus, UniProt P38532); assay: HSF1 potentiators in luciferase reporter cells, confirmation, cell-based, NIH3T3, luminescence, dose retest (AID 435004); format: functional;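 also: stress induced by proteasome inhibitor MG132 added 30 min after compound; luciferase reporter driven by HSF1 response element in NIH3T3 cells; actives raise luminescence as potentiators of the MG132 stress response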
T3 sequence (P38532 whole entry): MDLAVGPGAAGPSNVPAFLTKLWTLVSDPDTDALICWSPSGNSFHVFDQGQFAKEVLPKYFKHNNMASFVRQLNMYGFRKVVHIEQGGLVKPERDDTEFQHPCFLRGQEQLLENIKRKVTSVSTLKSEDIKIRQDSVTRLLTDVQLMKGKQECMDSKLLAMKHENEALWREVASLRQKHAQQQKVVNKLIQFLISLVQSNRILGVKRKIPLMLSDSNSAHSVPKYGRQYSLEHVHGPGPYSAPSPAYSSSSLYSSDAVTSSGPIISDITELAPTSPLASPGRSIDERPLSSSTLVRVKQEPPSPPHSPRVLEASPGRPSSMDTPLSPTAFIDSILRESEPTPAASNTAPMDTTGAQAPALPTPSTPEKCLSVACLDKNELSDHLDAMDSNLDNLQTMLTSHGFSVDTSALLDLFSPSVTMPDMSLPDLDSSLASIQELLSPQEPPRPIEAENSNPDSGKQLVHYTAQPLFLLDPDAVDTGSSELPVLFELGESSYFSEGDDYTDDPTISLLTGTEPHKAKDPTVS

[4] = molecular target: Cytochrome P450 2D6 (Homo sapiens, UniProt P10635);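 also: CYP2D6 member of a cytochrome P450 panel assay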
Chain of Cytochrome P450 2D6 (P10635 whole entry): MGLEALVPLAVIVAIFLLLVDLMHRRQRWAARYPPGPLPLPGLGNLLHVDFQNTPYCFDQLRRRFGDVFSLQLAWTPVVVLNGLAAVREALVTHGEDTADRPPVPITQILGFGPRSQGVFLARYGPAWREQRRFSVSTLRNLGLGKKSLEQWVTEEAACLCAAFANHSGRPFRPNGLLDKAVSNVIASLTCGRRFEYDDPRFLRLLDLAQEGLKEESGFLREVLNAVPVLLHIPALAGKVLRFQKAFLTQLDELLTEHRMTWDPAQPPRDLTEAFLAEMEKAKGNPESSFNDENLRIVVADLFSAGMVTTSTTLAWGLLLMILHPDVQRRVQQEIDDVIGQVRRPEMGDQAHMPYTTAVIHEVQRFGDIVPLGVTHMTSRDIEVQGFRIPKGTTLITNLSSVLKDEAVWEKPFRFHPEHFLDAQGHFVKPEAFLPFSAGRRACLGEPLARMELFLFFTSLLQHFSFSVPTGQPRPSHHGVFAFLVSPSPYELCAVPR

[5] = molecular target: Cytochrome P450 3A4 (Homo sapiens, UniProt P08684);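 also: CYP3A4 tested as one member of a cytochrome P450 panel screen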
Chain of Cytochrome P450 3A4 (P08684 whole entry): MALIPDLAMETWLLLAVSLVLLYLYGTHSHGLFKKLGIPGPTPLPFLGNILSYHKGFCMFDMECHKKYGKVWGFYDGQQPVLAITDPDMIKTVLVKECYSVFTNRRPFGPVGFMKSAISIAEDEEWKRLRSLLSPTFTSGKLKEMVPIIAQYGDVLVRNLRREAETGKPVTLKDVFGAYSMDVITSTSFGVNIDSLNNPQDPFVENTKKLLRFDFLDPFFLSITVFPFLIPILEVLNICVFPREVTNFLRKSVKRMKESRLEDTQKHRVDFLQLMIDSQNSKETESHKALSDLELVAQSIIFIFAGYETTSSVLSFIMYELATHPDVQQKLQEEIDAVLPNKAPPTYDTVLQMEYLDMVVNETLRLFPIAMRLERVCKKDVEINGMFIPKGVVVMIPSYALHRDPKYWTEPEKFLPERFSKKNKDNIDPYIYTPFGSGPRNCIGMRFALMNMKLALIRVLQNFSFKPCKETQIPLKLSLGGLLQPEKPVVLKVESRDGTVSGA

[6] = molecular target: Cytochrome P450 2C9 (Homo sapiens, UniProt P11712)
Chain of Cytochrome P450 2C9 (P11712 whole entry): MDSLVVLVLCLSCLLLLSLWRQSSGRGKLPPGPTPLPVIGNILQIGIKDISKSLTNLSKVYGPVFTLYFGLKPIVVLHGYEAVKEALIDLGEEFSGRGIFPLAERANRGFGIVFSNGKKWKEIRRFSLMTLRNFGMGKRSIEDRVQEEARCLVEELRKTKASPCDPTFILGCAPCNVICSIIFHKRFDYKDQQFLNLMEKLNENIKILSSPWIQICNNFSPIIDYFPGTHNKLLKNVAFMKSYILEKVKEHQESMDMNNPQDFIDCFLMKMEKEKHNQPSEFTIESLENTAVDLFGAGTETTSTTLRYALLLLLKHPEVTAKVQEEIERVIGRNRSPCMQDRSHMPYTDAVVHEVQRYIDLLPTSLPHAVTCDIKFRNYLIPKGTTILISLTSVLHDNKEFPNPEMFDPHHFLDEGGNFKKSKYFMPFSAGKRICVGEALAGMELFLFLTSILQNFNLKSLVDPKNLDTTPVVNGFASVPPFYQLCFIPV

[7] = cytotoxicity toward NIH3T3 fibroblasts, dose response, counter-screen, cell-based, ATP luminescence, mouse fibroblasts (AID 2010); format: functional;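 also: cells exposed to compound for about 90 hours before reading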
[8] = inhibitors of intracellular T. cruzi replication, confirmation, NIH3T3 host cells, beta-gal luminescence (AID 2044); format: functional, cell-based;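 also: intracellular parasites grown in NIH/3T3 mouse fibroblasts as host cells; luminescent beta-galactosidase reporter signal from transgenic T. cruzi replicating inside host cells; inhibitors lower the luminescence signal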
[9] = Luminescence Cell-Based Dose Response HTS to Identify Inhibitors of 5'UTR Stem-Loop Driven Prion Protein mRNA Translation in H4 Neuroglioblastoma Cells. [Related pubchem assays: 1827 (Project Summary), 1813 (Primary HTS)]; format: functional
[10] = inhibitors of SNCA 5'UTR-driven reporter translation, confirmation, H4 neuroglioma cells, luminescence (AID 1988); format: functional, cell-based
[11] = system: INS1; assay: beta cell apoptosis inhibitors, cytokine rescue, dose response, luminescence, retest (AID 449756); format: functional, cell-based; details: Rattus norvegicus;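 also: cell death triggered by IL-1 beta plus TNF-alpha plus IFN-gamma mixture; protective hits raise ATP signal compared with cytokine alone wells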
[12] = molecular target: Cytochrome P450 2C19 (Homo sapiens, UniProt P33261); assay: Cytochrome panel assay with activity outcomes. Panel member name: p450-cyp2c19 Compounds with AC50 equal or less than 10 uM are considered active; format: functional; details: read-out: AC50
Chain of Cytochrome P450 2C19 (P33261 whole entry): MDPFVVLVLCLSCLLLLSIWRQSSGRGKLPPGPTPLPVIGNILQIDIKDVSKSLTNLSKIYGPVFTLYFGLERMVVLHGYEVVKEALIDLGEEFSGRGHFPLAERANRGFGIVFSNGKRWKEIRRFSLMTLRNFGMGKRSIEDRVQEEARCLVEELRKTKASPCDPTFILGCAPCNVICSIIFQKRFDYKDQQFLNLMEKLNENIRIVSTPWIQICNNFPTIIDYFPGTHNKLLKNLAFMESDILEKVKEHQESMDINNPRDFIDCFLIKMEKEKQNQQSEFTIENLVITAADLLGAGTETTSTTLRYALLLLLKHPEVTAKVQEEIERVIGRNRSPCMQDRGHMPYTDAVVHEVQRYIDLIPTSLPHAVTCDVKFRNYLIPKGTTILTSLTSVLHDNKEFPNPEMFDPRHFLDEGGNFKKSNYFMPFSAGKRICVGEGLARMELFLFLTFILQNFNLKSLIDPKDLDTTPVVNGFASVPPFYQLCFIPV

[13] = molecular target: T3, Heat shock factor protein 1; assay: inhibition of MG132-induced HSE-luciferase signal, confirmation, cell-based, NIH3T3, luminescence, dose retest (AID 2382); format: functional;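 also: NIH3T3 fibroblasts with HSF1-driven luciferase reporter stressed by proteasome inhibitor MG132; luminescence from HSF1-driven luciferase expression after 8 hours of MG132 stress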

SMILES: CCOC(=O)c1cnc2ccc(C)cc2c1Sc1ccc(F)cc1
- AC50 [1]: 5.76 µM (active)
- EC50 [2]: 2.95 µM (active)
- EC50 [3]: 11.2 µM (active)

SMILES: CN1CCN(C(=O)/C(=C/c2cccnc2)NC(=O)c2cccc(Br)c2)CC1
- EC50 [3]: > 260 µM (inactive)

SMILES: COc1ccc(C(=O)N2CCC3(CCCN(Cc4ccccc4OC)C3)CC2)cc1
- AC50 [4]: 12.6 µM (inconclusive)
- AC50 [5]: 15.8 µM (inconclusive)

SMILES: Nc1nnc(CSCc2ccccc2Cl)s1
- EC50 [3]: > 260 µM (inactive)

SMILES: O=C(NC1CCCC1)C(c1ccc(F)cc1)N(Cc1ccc(F)cc1)C(=O)c1cc[nH]n1 (configuration not stated)
- AC50 [6]: 39.8 µM (inconclusive)
- AC50 [4]: 25.1 µM (inconclusive)

SMILES: CCN(CC)S(=O)(=O)c1ccc2oc(C(=O)NC3CCCc4ccccc43)c(C)c2c1 (configuration not stated)
- EC50 [7]: > 60 µM (not active)
- EC50 [8]: 2.1 µM (active)

SMILES: CC1CC(C)CN(C(=O)CCS(=O)(=O)c2ccc3c(c2)NC(=O)CS3)C1 (configuration not stated)
- EC50 [3]: > 260 µM (inactive)

SMILES: Cc1nnc2nc(SCC(=O)NCC3CCCO3)n(-c3ccc(Br)cc3)c(N)c1-2 (configuration not stated)
- AC50 [6]: 14.1 µM (inconclusive)
- AC50 [4]: 10 µM (inconclusive)

SMILES: O=C(Nc1ccccc1)N1CCCN(c2ccc(C(F)(F)F)cc2[N+](=O)[O-])CC1
- EC50 [3]: > 260 µM (inactive)

SMILES: Cc1ccc(S(=O)(=O)c2cc(C#N)c(O)nc2N)cc1
- AC50 [4]: 39.8 µM (inconclusive)
- AC50 [5]: 25.1 µM (inconclusive)

SMILES: CCc1cc2c3c(c1)C1(C(=O)N3C(C)(C)C=C2C)C(C#N)=C(N)Oc2nc(O)nc(O)c21 (configuration not stated)
- AC50 [1]: 11 µM (active)
- EC50 [2]: 2.65 µM (active)

SMILES: CS(=O)(=O)C1=NN2C(=N)/C(=C\c3ccc(OC(=O)c4ccco4)cc3)C(=O)N=C2S1
- AC50 [1]: > 380 µM (inactive)
- EC50 [2]: 16.8 µM (active)

SMILES: COc1ccc(C(=O)ON=C(N)c2ccccc2)c(OC)c1
- EC50 [9]: > 120 µM (not active)
- EC50 [10]: 5.93 µM (active)

SMILES: Cc1ccccc1OCCNC(=O)c1ccccc1Sc1ccccc1C#N
- AC50 [6]: 28.2 µM (inconclusive)
- AC50 [4]: 25.1 µM (inconclusive)

SMILES: Cn1cc(C=O)c(-c2ccc3c(c2)OCCCO3)n1
- EC50 [3]: > 260 µM (inactive)

SMILES: Cc1cccc(C(C)C)c1NC(=O)COC(=O)c1cccc(S(=O)(=O)N2CCc3ccccc3C2)c1
- EC50 [3]: > 260 µM (inactive)

SMILES: Cc1ccc(N2C(=O)C(Cl)=C(NCc3ccccc3)C2=O)c(C)c1
- AC50 [4]: 22.4 µM (inconclusive)

SMILES: CC(C)(CC(=O)N1CCN(c2ccc(Cl)cc2)CC1)CC1=NS(=O)(=O)c2ccccc2N1
- AC50 [4]: 3.16 µM (inconclusive)

SMILES: CCOc1ccc(NC(=S)N(Cc2ccc(Cl)cc2)Cc2ccco2)cc1
- EC50 [3]: > 260 µM (inactive)

SMILES: CCCCCC1=C2CNC(CCC)(C(=O)OC)C=C2C(C)C1=O (configuration not stated)
- AC50 [4]: 12.6 µM (inconclusive)

SMILES: O=C(NCc1cccnc1)c1cc(-c2ccco2)on1
- AC50 [11]: 1.62 µM (active)

SMILES: CSc1c(-c2ccccc2)nc2ccccc2c1C(=O)O
- AC50 [12]: 10 µM (inconclusive)
- AC50 [4]: 3.16 µM (inconclusive)

SMILES: CC(C)CCN(C(=O)CNC(=O)c1cccs1)C(C(=O)NC1CCCCC1)c1cccnc1 (configuration not stated)
- EC50 [13]: > 195 µM (not active)

SMILES: CCOc1cc(C2C(C#N)=C(N)Oc3[nH]nc(C)c32)ccc1OCCN1CCOCC1 (configuration not stated)
- AC50 [1]: 50.6 µM (active)
- EC50 [2]: 4.45 µM (active)

SMILES: O=C1NC(=S)S/C1=C\c1nc2ccccc2[nH]1
- AC50 [1]: > 380 µM (inactive)
- EC50 [2]: > 120 µM (inactive)

SMILES: CNC(=O)c1[nH]cnc1C(=O)Nc1ccccc1C
- EC50 [13]: > 195 µM (not active)

SMILES: CCN1C(=O)CC(N2CCN(c3ccc(C(=O)c4ccccc4)cc3)CC2)C1=O (configuration not stated)
- EC50 [3]: > 260 µM (inactive)

SMILES: O=C(NC1CCSc2ccccc21)c1ccccc1Cl (configuration not stated)
- EC50 [3]: > 260 µM (inactive)

SMILES: FC(F)(F)c1ccccc1-c1cc(NCc2cccnc2)ncn1
- AC50 [4]: 25.1 µM (inconclusive)

SMILES: CN(C)CCCn1c(N)c(C#N)c2nc(C#N)c(C#N)nc21
- EC50 [3]: 58.3 µM (active)

SMILES: COCCNc1nc(-c2ccccc2OC)nc2ccccc12
- AC50 [4]: 25.1 µM (inconclusive)
- AC50 [5]: 20 µM (inconclusive)

SMILES: COc1ccc(S(=O)(=O)N2CCCC2)cc1C(C)C
- EC50 [13]: > 195 µM (not active)

SMILES: O=C(CCNc1ccc(F)cc1)c1cc2ccccc2o1
- EC50 [7]: > 60 µM (not active)
- EC50 [8]: 1.12 µM (active)

SMILES: CCc1ccc(-c2cc(C(F)(F)F)n3nc(C(=O)Nc4cnn(Cc5ccc(C)cc5)c4)cc3n2)s1
- AC50 [11]: 3.63 µM (active)

SMILES: c1ccc2c(c1)ncn2-c1ncnc2sc3c(c12)CCCC3
- AC50 [6]: 20 µM (inconclusive)
- AC50 [4]: 0.00501 µM (inconclusive)
- AC50 [5]: 14.1 µM (inconclusive)

SMILES: CCOC(=O)c1c(N=C(S)N2CCOCC2)sc2c1CCN(C(=O)OCC)C2
- AC50 [1]: 5.25 µM (active)
- EC50 [2]: 20.1 µM (active)

SMILES: COc1cccc(N/C([S-])=C(/C(=O)c2ccc(C)c([N+](=O)[O-])c2)[n+]2ccccc2)c1
- AC50 [1]: 13.3 µM (active)
- EC50 [2]: 9.74 µM (active)

SMILES: NCCCc1ccc2oc3ccccc3c2c1
- AC50 [12]: 7.94 µM (inconclusive)
- AC50 [4]: 2.51 µM (inconclusive)

SMILES: COc1ccccc1NC(=O)CN1CCN(CC(=O)Nc2ccccc2Cl)CC1
- EC50 [3]: > 260 µM (inactive)

SMILES: C[C@H](CO)N1C[C@H](C)[C@@H](CN(C)C(=O)NC2CCCCC2)Oc2c(NC(=O)Nc3ccc(C(F)(F)F)cc3)cccc2C1=O
- AC50 [11]: 27.7 µM (active)

SMILES: Oc1ccc(/C(Cc2ccc3ccccc3n2)=N\Nc2ccccc2)c(O)c1
- AC50 [1]: 78.3 µM (active)
- EC50 [2]: 13.6 µM (active)

SMILES: O=C(N/N=C/c1ccc(-c2cccc([N+](=O)[O-])c2)o1)c1cccs1
- EC50 [7]: > 60 µM (not active)
- EC50 [8]: 0.634 µM (active)

SMILES: CC1Cc2ccccc2N1C(=O)CO/N=C/c1ccc(OC(F)F)cc1 (configuration not stated)
- EC50 [13]: > 195 µM (not active)

SMILES: O=C(N/N=C/c1cccnc1)c1ccccc1NS(=O)(=O)c1cccs1
- AC50 [11]: > 260 µM (inactive)
